From US9023865B2, “Compounds that are ERK inhibitors” (Merck Sharp & Dohme Corp., priority 2011, dated 2015)

Biological target: Active Human ERK2 (hERK2) (Homo sapiens (Human), UniProt P28482)
Test: Active Human ERK2 (hERK2) Activity Assay (IMAP-FP)
Assay type: biochemical
Settings: phosphorylated active hERK2, 30 μM ATP; average; read-out: ERK 2 Human average IC50
Procedure, shortened: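 Reaction contains 0.5 nM activated hERK2, 900 nM unlabeled plus 80 nM labeled peptide and 30 μM ATP, run 60 min. Quenched with IMAP binding beads in buffer with 24 mM NaCl; fluorescence polarization read after 60 min binding equilibration.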

Sequence of Active Human ERK2 (hERK2) (P28482 whole entry): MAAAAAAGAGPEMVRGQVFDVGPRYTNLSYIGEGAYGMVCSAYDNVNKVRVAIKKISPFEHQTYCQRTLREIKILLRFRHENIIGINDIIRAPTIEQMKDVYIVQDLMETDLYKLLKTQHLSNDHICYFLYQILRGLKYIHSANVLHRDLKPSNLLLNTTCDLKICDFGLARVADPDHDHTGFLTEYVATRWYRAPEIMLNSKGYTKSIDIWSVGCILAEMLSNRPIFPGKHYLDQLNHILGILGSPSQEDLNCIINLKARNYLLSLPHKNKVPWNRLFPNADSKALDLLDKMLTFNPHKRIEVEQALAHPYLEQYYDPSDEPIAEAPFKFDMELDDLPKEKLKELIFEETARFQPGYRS

| SMILES | IC50 [nM] |
| --- | --- |
| COc1ccnc([C@H](C)NC(=O)Nc2cc3[nH]nc(-c4ccnc(C)c4)c3cn2)c1 [Example 230] | 650 |
| Cc1cc(-c2n[nH]c3cc(NC(=O)Nc4ccccc4)ncc23)ccn1 [Example 61, 1-[3-(2-methylpyridin-4-yl)-1H-pyrazolo[4,3-c]pyridin-6-yl]-3-phenylurea] | 127 |
| CC(CN(C)C)NC(=O)Nc1cc2[nH]nc(-c3ccc(F)cc3)c2cn1 (stereo not shown) [Example 228] | 70.3 |
| Cc1cc(-c2n[nH]c3cc(NC(=O)N[C@@H]4CCOc5cc(C#N)ccc54)ncc23)ccn1 [Example 266] | 70.6 |
| Cc1cc(-c2n[nH]c3cc(NC(=O)NC4(C#N)CC4)ncc23)ccn1 [Example 201] | 92 |
| Cc1cc(-c2n[nH]c3cc(NC(=O)N[C@@H](C)c4ccc(F)c(F)c4)ncc23)ccn1 [Example 411] | 34.1 |
| Cc1cc(-c2n[nH]c3cc(NC(=O)NCc4ccc(C(F)(F)F)cc4)ncc23)ccn1 [Example 54, 1-[3-(2-methylpyridin-4-yl)-1H-pyrazolo[4,3-c]pyridin-6-yl]-3-[4-(trifluoromethyl)-benzyl]urea] | 6.52 |
| Cc1cc(-c2n[nH]c3cc(NC(=O)NCc4ccc(Cl)cc4Cl)ncc23)ccn1 [Example 443] | 11.8 |
| COC[C@H](NC(=O)Nc1cc2[nH]nc(-c3ccnc(C)c3)c2cn1)c1ccccc1 [Example 587] | 12.6 |
| Cc1ccc2nc(CNC(=O)Nc3cc4[nH]nc(-c5ccnc(C)c5)c4cn3)cn2c1 [Example 391] | 22.2 |
| COC[C@@H](NC(=O)Nc1cc2[nH]nc(-c3ccc(C(F)(F)F)nc3)c2cn1)c1ccc(F)cc1 [Example 305] | 24.7 |
| Cc1cc(-c2n[nH]c3cc(NC(=O)NCc4ncon4)ncc23)ccn1 [Example 426] | 5.67 |
| O=C(NCc1ccc(F)cc1)Nc1cc2[nH]nc(-c3ccc(OC(F)(F)F)cc3)c2cn1 [Example 675] | 89.2 |
| Cc1cc(-c2n[nH]c3cc(NC(=O)NC4(c5ccc(F)cc5)CC4)ncc23)ccn1 [Example 343] | 18.7 |
| COc1cc(-c2n[nH]c3cc(NC(=O)N[C@H](C)c4ccc(F)cc4)ncc23)cc(C(F)(F)F)n1 [Example 257] | 379 |
| Cc1cc(-c2n[nH]c3cc(NC(=O)NC4CCCC(Oc5cccc(F)c5)C4)ncc23)ccn1 (stereo not shown) [Example 648] | 28.2 |
| Cc1ccnc(C(C)NC(=O)Nc2cc3[nH]nc(-c4ccnc(C)c4)c3cn2)c1 (stereo not shown) [Example 498] | 2.82 |
| Cc1cc(-c2n[nH]c3cc(NC(=O)NC4CC(=O)Nc5ccc(F)cc54)ncc23)ccn1 (stereo not shown) [Example 396] | 8.46 |
| C[C@@H](NC(=O)Nc1cc2[nH]nc(C(F)F)c2cn1)c1ccccn1 [Example 678] | 765 |
| Cc1cc(-c2n[nH]c3cc(NC(=O)NCc4nncs4)ncc23)ccn1 [Example 438] | 6.6 |
| Cc1cc(-c2n[nH]c3cc(NC(=O)N[C@H]4CN(C)C[C@@H]4C)ncc23)ccn1 [Example 205] | 15.1 |
| C[C@@H](NC(=O)Nc1cc2[nH]nc(C(=O)NCC3(O)CCC3)c2cn1)c1ccccc1 [Example 136] | 11.9 |

| SMILES | IC50 [nM] |
| --- | --- |
| Cc1cc(-c2n[nH]c3cc(NC(=O)N[C@@H]4c5ccccc5C[C@H]4N(C)C)ncc23)ccn1 [Example 490] | 11.3 |
| C[C@@H](NC(=O)Nc1cc2[nH]nc(C(=O)N(C)C)c2cn1)c1ccccc1 [Example 139] | 570 |
| Cc1cc(-c2n[nH]c3cc(NC(=O)NC4(c5ccccn5)CC4)ncc23)ccn1 [Example 351] | 91.9 |
| COC[C@@H](NC(=O)Nc1cc2[nH]nc(C3=NOC(C)C3)c2cn1)c1ccccc1 (stereo partly shown) [Example 686] | 23.8 |
| Cc1cc(-c2n[nH]c3cc(NC(=O)NCc4cn5c(C)cccc5n4)ncc23)ccn1 [Example 392] | 22.6 |
| COCCNC(=O)Nc1cc2[nH]nc(-c3ccnc(C)c3)c2cn1 [Example 40, 1-(2-methoxyethyl)-3-[3-(2-methylpyridin-4-yl)-1H-pyrazolo[4,3-c]pyridin-6-yl]urea] | 2.9 |
| N#Cc1cccc(-c2n[nH]c3cc(NC(=O)NCc4ccc(F)cc4)ncc23)c1 [Example 673] | 5.41 |
| Cc1cc(-c2n[nH]c3cc(NC(=O)N[C@H]4CN(C)C[C@@H]4c4ccccc4C)ncc23)ccn1 [Example 216, 1-((3R,4S)-1-methyl-4-(o-tolyl)pyrrolidin-3-yl)-3-(3-(2-methylpyridin-4-yl)-1H-pyrazolo[4,3-e]pyridin-6-yl)urea] | 66.3 |
| Cc1cc(-c2n[nH]c3cc(NC(=O)N[C@H]4CN(C)C[C@@H]4C4CCOCC4)ncc23)ccn1 [Example 210] | 96.8 |
| Cc1cc(-c2n[nH]c3cc(NC(=O)N[C@@H](CN)c4ccccc4)ncc23)ccn1 [Example 331] | 29.1 |
| Cc1cc(-c2n[nH]c3cc(NC(=O)NCC4CCN(Cc5ccccc5)C4)ncc23)ccn1 (stereo not shown) [Example 410] | 2.65 |
| Cc1cc(-c2n[nH]c3cc(NC(=O)NCc4ccc[n+]([O-])c4)ncc23)ccn1 [Example 508] | 11.6 |
| O=C(NCC1CCC1)Nc1cc2[nH]nc(-c3ccc(F)cc3)c2cn1 [Example 592] | 2.88 |
| O=C(NCc1ccccc1)Nc1cc2[nH]nc(C3CCC3)c2cn1 [Example 147] | 11.2 |
| Cc1cc(-c2n[nH]c3cc(NC(=O)N4CCN(c5ccc(F)cc5)C[C@H]4C)ncc23)ccn1 [Example 288] | 2290 |
| Cc1nocc1-c1n[nH]c2cc(NC(=O)N[C@H](C)c3ccc(F)cc3)ncc12 [Example 243] | 86.8 |
| Cc1cc(-c2n[nH]c3cc(NC(=O)NCc4ncccc4F)ncc23)ccn1 [Example 447] | 2.62 |
| Cc1cc(-c2n[nH]c3cc(NC(=O)NCCN4CCC(c5ccccc5)C4)ncc23)ccn1 (stereo not shown) [Example 401] | 20 |
| CCCCNC(=O)Nc1cc2[nH]nc(C3CCC3)c2cn1 [Example 143, 1-butyl-3-(3-cyclobutyl-1H-pyrazolo[4,3-c]pyridin-6-yl)urea] | 39.7 |
| Cc1cc(-c2n[nH]c3cc(NC(=O)NCC(O)C4CCCCC4)ncc23)ccn1 (stereo not shown) [Example 389] | 4.11 |
| C[C@@H](NC(=O)Nc1cc2[nH]nc(C(=O)NCC34CC5CC(C3)C(O)C(C5)C4)c2cn1)c1ccccc1 (stereo partly shown) [Example 127] | 14.7 |
| CCOCc1n[nH]c2cc(NC(=O)N[C@H](C)c3ccccc3)ncc12 [Example 620, 1-[3-(ethoxymethyl)-1H-pyrazolo[4,3-c]pyridin-6-yl]-3-[(1R)-1-phenylethyl]urea] | 138 |

Continued by falling IC50, values first:

| IC50 [nM] | SMILES |
| --- | --- |
| 2.55 | Cc1cc(-c2n[nH]c3cc(NC(=O)NCc4cn[nH]c4)ncc23)ccn1 [Example 420] |
| 2.43 | C[C@@H](NC(=O)Nc1cc2[nH]nc(C3CC3)c2cn1)c1ccc(F)cc1 [Example 141] |
| 2.27 | COc1cccc(F)c1CN1CCC[C@@H](NC(=O)Nc2cc3[nH]nc(-c4ccc(C#N)cc4)c3cn2)C1 [Example 655] |
| 2.2 | COc1cccc(F)c1CN1CCC[C@@H](NC(=O)Nc2cc3[nH]nc(-c4ccc(F)cc4)c3cn2)C1 [Example 654] |
| 1.91 | C[C@@H](NC(=O)Nc1cc2[nH]nc(-c3ccnc(F)c3)c2cn1)c1ccc(F)c(Cl)c1 [Example 81, 1-[(1R)-1-(3-chloro-4-fluorophenyl)ethyl]-3-[3-(2-fluoropyridin-4-yl)-1H-pyrazolo[4,3-c]pyridin-6-yl]urea] |
| 1.64 | Cc1cc(-c2n[nH]c3cc(NC(=O)N[C@@H]4CCCCc5ccccc54)ncc23)ccn1 [Example 265] |
| 1.31 | Cc1cc(-c2n[nH]c3cc(NC(=O)NCc4csc5ccccc45)ncc23)ccn1 [Example 502] |
| 1.3 | CO[C@H](C)CNC(=O)Nc1cc2[nH]nc(-c3ccc(F)cc3)c2cn1 [Example 634] |
| 1.3 | Cc1cc(-c2n[nH]c3cc(NC(=O)NCC4CNC4)ncc23)ccn1 [Example 586] |
| 1.12 | Cc1cc(-c2n[nH]c3cc(NC(=O)NCc4ccns4)ncc23)ccn1 [Example 429] |
| 1.07 | CCOCCNC(=O)Nc1cc2[nH]nc(-c3ccnc(C)c3)c2cn1 [Example 617] |
| 0.97 | CNC(=O)[C@H]1CC1c1n[nH]c2cc(NC(=O)N[C@H](COC)c3ccccc3)ncc12 (stereo partly shown) [Example 171] |
| 0.878 | Cc1cc(-c2n[nH]c3cc(NC(=O)N[C@H](C)c4ccccc4)ncc23)cnn1 [Example 91, 1-[3-(6-methylpyridazin-4-yl)-1H-pyrazolo[4,3-c]pyridin-6-yl]-3-[(1R)-1-phenylethyl]urea] |
| 0.789 | Cc1cc(-c2n[nH]c3cc(NC(=O)NC[C@@H](C)c4ccccc4)ncc23)ccn1 [Example 622] |
| 0.731 | Cc1cc(-c2n[nH]c3cc(NC(=O)N[C@H]4CN(C)C[C@@H]4c4ccc(F)cc4)ncc23)ccn1 [Example 211] |
| 0.709 | C[C@@H](NC(=O)Nc1cc2[nH]nc(-c3cnn(C)c3)c2cn1)c1ccc(F)c(Cl)c1 [Example 72, 1-[(1R)-1-(3-chloro-4-fluorophenyl)ethyl]-3-[3-(1-methyl-1H-pyrazol-4-yl)-1H-pyrazolo[4,3-c]pyridin-6-yl]urea] |
| 0.672 | C[C@@H](NC(=O)Nc1cc2[nH]nc(-c3ccc4nn(C)cc4c3)c2cn1)c1cccc(Cl)c1 [Example 62, 1-[(1R)-1-(3-chlorophenyl)ethyl]-3-[3-(2-methyl-2H-indazol-5-yl)-1H-pyrazolo[4,3-c]pyridin-6-yl]urea] |
| 0.621 | C[C@@H](NC(=O)Nc1cc2[nH]nc(-c3ccnc(F)c3)c2cn1)c1ccc(F)cc1 [Example 645] |
| 0.44 | COc1cc(F)ccc1CNC(=O)Nc1cc2[nH]nc(-c3ccnc(C)c3)c2cn1 [Example 520] |
| 0.385 | Cc1cc(-c2n[nH]c3cc(NC(=O)NCc4ccsc4)ncc23)ccn1 [Example 475] |
| 0.293 | COc1ccccc1CNC(=O)Nc1cc2[nH]nc(-c3ccnc(C)c3)c2cn1 [Example 529] |
| 0.223 | C[C@@H](NC(=O)Nc1cc2[nH]nc(-c3ccc4nn(C)cc4c3)c2cn1)c1ccccc1 [Example 651] |
| 0.193 | Cc1cc(-c2n[nH]c3cc(NC(=O)N[C@@H]4COC[C@H]4c4ccccc4)ncc23)ccn1 [Example 580] |

Same assay, conditions: read-out: AERK2 IC50 (Active human ERK2 Activity Assay)

| IC50 [nM] | SMILES |
| --- | --- |
| 0.2 to 1.7 | Cc1cc(-c2n[nH]c3cc(NC(=O)N[C@H](C)c4ccccc4)ncc23)cnn1 [Example 91, 1-[3-(6-methylpyridazin-4-yl)-1H-pyrazolo[4,3-c]pyridin-6-yl]-3-[(1R)-1-phenylethyl]urea] |
| 0.2 to 1.7 | C[C@@H](NC(=O)Nc1cc2[nH]nc(-c3cnn(C)c3)c2cn1)c1ccc(F)c(Cl)c1 [Example 72, 1-[(1R)-1-(3-chloro-4-fluorophenyl)ethyl]-3-[3-(1-methyl-1H-pyrazol-4-yl)-1H-pyrazolo[4,3-c]pyridin-6-yl]urea] |
| 0.2 to 1.7 | C[C@@H](NC(=O)Nc1cc2[nH]nc(-c3ccc4nn(C)cc4c3)c2cn1)c1cccc(Cl)c1 [Example 62, 1-[(1R)-1-(3-chlorophenyl)ethyl]-3-[3-(2-methyl-2H-indazol-5-yl)-1H-pyrazolo[4,3-c]pyridin-6-yl]urea] |
